Laboratory results published in PMC9040055, “Triterpenes from Pholiota populnea as Cytotoxic Agents and Chemosensitizers to Overcome Multidrug Resistance of Cancer Cells” (Journal of Natural Products, 2022).
Entries after “also recorded” stand apart in the source; their conditions may differ. Read-outs that look alike come from different tables or passages of the source.

Columns and labels:
[1] = test system: Colo 205 doxorubicin-sensitive colon adenocarcinoma cells; assay: MTT assay for cytotoxic effect, Colo 205; assay type: cell-based, human; settings: 24 h incubation, triplicate, read-out: Colo205 (IC50 μM) mean
Method: (§1) The human colon adenocarcinoma cell lines, the Colo 205 (ATCC-CCL-222) doxorubicin-sensitive parent and Colo 320/MDR-LRP (ATCC-CCL-220.1) resistant to anticancer agents expressing ABCB1, were purchased from LGC Promochem (Teddington, UK). […] The cell lines were incubated in a humidified atmosphere (5% CO2, 95% air) at 37 °C. The effects of increasing concentrations of the compounds on cell growth were tested in 96-well flat-bottomed microtiter plates. The 2-fold serial dilutions of the tested compounds were made starting with 100 μM. Then, 10^4 human colonic adenocarcinoma cells in 100 μL of the medium (RPMI-1640) were added to each well, except for the medium control wells. The adherent human embryonic lung fibroblast cell line (10^4/well) was seeded in EMEM medium in 96-well flat-bottomed microtiter plates for 4 h before the assay. The serial dilutions of the compounds were made in a separate plate starting with 100 μM and then transferred to the plates containing the adherent corresponding cell line. Culture plates were incubated at 37 °C for 24 h; at the end of the incubation period, 20 μL of MTT (thiazolyl blue tetrazolium bromide) solution (from a 5 mg/mL stock solution) was added to each well. After incubation at 37 °C for 4 h, 100 μL of sodium dodecyl sulfate (SDS) solution (10% SDS in 0.01 M HCl) was added to each well, and the plates were further incubated at 37 °C overnight. Cell growth was determined by measuring the optical density (OD) at 540 nm (ref 630 nm) with a Multiscan EX ELISA reader (Thermo Labsystems, Cheshire, WA, USA). […] IC50 values and the SD of triplicate experiments were calculated by using GraphPad Prism software version 5.00 for Windows with nonlinear regression curve fit (GraphPad Software, San Diego, CA, USA; www.graphpad.com).

[2] = biological target: P-glycoprotein (ABCB1) in MDR Colo 320 cells (Homo sapiens, UniProt P08183); assay: Rhodamine 123 accumulation assay (P-gp efflux pump inhibition); assay type: cell-based
Sequence of P-glycoprotein (ABCB1) in MDR Colo 320 cells (P08183 whole entry): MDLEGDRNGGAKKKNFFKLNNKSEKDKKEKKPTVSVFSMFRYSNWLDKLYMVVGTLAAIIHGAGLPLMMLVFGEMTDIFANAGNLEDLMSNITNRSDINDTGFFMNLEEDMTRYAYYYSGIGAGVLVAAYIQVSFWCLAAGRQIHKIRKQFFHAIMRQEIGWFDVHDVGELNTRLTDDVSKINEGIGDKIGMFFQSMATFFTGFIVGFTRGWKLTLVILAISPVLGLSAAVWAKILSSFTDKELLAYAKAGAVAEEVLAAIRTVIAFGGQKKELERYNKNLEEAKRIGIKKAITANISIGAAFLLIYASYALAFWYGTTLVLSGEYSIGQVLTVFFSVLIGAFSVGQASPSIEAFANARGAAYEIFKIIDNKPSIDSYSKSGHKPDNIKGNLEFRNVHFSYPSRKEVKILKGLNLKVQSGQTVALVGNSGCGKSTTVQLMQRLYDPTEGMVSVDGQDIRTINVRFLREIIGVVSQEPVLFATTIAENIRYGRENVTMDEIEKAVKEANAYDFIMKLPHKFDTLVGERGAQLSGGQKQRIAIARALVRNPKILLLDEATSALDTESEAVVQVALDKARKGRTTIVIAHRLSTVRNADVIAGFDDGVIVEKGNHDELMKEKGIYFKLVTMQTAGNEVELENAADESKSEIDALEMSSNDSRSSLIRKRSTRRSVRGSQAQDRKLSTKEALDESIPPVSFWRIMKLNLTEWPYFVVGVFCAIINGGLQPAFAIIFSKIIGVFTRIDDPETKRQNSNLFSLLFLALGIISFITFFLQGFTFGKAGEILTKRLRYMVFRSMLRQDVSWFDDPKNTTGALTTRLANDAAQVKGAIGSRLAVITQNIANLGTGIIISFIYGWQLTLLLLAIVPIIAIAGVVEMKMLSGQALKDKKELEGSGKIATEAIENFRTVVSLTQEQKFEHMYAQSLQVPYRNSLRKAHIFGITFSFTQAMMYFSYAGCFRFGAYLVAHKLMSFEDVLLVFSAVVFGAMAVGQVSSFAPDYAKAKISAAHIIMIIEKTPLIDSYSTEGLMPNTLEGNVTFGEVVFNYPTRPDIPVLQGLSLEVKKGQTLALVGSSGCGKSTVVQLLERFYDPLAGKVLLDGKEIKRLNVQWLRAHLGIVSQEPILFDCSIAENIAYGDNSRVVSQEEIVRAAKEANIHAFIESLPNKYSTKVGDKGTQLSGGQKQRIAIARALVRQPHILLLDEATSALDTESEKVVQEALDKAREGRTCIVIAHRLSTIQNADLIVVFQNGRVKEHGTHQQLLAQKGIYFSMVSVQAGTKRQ
Method: The inhibitory activities of compounds 1–3, 5, and 6 on efflux function were evaluated by measuring the intracellular accumulation of rhodamine 123, a well-known P-glycoprotein substrate fluorescent dye, within the Colo320 MDR cells. Tariquidar, a strong P-gp inhibitor, was used as positive control. All tested compounds were dissolved in DMSO, and the final concentration (2.00%) of the solvent was investigated for any effect on the retention of rhodamine 123. […] The cell numbers of the human colon adenocarcinoma cell lines were adjusted to 2 × 10^6 cells/mL, resuspended in serum-free RPMI 1640 medium, and distributed in 0.5 mL aliquots into Eppendorf centrifuge tubes. […] DMSO at 2% v/v was used as solvent control. Next, 10 μL (5.2 μM final concentration) of the fluorochrome and ABCB1 substrate rhodamine 123 (Sigma) were added to the samples, and the cells were incubated for a further 20 min at 37 °C, washed twice, and resuspended in 1 mL of PBS for analysis. The fluorescence of the cell population was measured with a PartecCyFlow flow cytometer (Partec, Münster, Germany). The FAR was calculated as the quotient between FL-1 of the treated/untreated resistant Colo 320 cell line over the treated/untreated sensitive Colo 205 cell line according to the following equation: [drawing 2]

[3] = test system: Colo 320/MDR-LRP resistant colon adenocarcinoma cells; assay: MTT assay for cytotoxic effect, Colo 320; assay type: cell-based, human; settings: 24 h incubation, triplicate, read-out: Colo320 (IC50 μM) mean
Method: as §1

[4] = test system: Colo 320 colon adenocarcinoma cell line; assay: Checkerboard combination assay with doxorubicin; assay type: cell-based, human; settings: for interaction (type of interaction with doxorubicin): Colo 320, based on combination indices; for CI at ED50 (combination index value at the 50% growth inhibition dose): with doxorubicin, Colo 320, 72 h, at best ratio
Method: A checkerboard microplate combination assay was performed, which is a widely used in vitro method for the assessment of drug interactions. […] The assay was carried out on the Colo 320 colon adenocarcinoma cell line. The final concentration of the compounds and doxorubicin used in the combination experiment was chosen in accordance with their cytotoxicity toward this cell line. The dilutions of doxorubicin were made in a horizontal direction in 100 μL, and the dilutions of the compounds vertically in the microtiter plate in a 50 μL volume. Then, 6 × 10^3 of Colo 320 cells in 50 μL of the medium were added to each well, except for the medium control wells. The plates were incubated for 72 h at 37 °C in a 5% CO2 atmosphere. The cell growth rate was determined after MTT staining. At the end of the incubation period, 20 μL of MTT solution (from a stock solution of 5 mg/mL) was added to each well. After incubation at 37 °C for 4 h, 100 μL of SDS solution (10% in 0.01 M HCI) was added to each well, and the plates were further incubated at 37 °C overnight. OD was measured at 540 nm (ref 630 nm) with a Multiscan EX ELISA reader.

[5] = test system: panel of 71 human cancer cells from 15 tumor types; design: method as in PMID 29931585; settings: against 27 cell lines of a panel of 71 human cancer cells; read-out: cytotoxicity IC50; cited from earlier work
[6] = MTT assay for cytotoxic effect, MRC-5; assay type: cell-based, human; settings: human
Method: as §1

[7] = test system: MRC-5 embryonic lung fibroblast cell line; assay: MTT assay for cytotoxic effect, MRC-5; assay type: cell-based, human; settings: MTT, 24 h incubation, triplicate
Method: as §1

[8] = test system: sensitive (Colo 205) human colon adenocarcinoma cells; design: method as in PMID 33809760; settings: sensitive Colo 205 cells; cited from earlier work
[9] = test system: resistant (Colo 320) human colon adenocarcinoma cells; design: method as in PMID 33809760; settings: resistant Colo 320 cells; cited from earlier work
[10] = MRC-5 embryonic lung fibroblast cells, MTT, 24 h incubation, triplicate, read-out: MRC-5 (IC50 μM) mean

SMILES	IC50 [1] [µM]	FAR (fluorescence activity ratio) ([2]; human, 20 min, 20 μM)	FL-1 ([2]; human, 20 min, 20 μM)	Peak Ch ([2]; human, 20 min, 20 μM)	IC50 [3] [µM]	interaction (type of interaction with doxorubicin) [4]	CI at ED50 (combination index value at the 50% growth inhibition dose) [4]	IC50 ([3]; Homo sapiens, COLO 320, 24 h) [µM]	IC50 ([1]; Homo sapiens, COLO 205, 24 h) [µM]	IC50 at 24 h ([6]; MRC-5 (IC50 μM) mean) [µM]	other results
COC(=O)C[C@@](C)(O)CC(=O)O[C@@H]1C[C@]2(C)C3=C(C(=O)C[C@H]2C(C)(C)[C@H]1OC(C)=O)[C@]1(C)CC[C@H]([C@H](C)CCC(=O)C(C)(C)O)[C@@]1(C)CC3 [compound 2, pholiol B]	> 25	6.880	79.700	77.700	> 25	synergistic	0.348	–	–	–	IC50 ([1]; listed as Pholiol B (2)): 67.9 µM; IC50 ([3]; listed as Pholiol B (2)): 61.5 µM; interaction (type of interaction with doxorubicin) ([4]; listed as pholiol B (2)): synergism
COC(=O)C[C@@](C)(O)CC(=O)O[C@@H]1C[C@]2(C)C3=C(CC[C@H]2C(C)(C)[C@H]1OC(C)=O)[C@]1(C)CC[C@H]([C@H](C)CCC(=O)C(C)(C)O)[C@@]1(C)[C@H](O)C3 [compound 4, pholiol D]	> 25	–	–	–	> 25	synergistic	0.660	48.9	–	–	IC50 ([1]; listed as Pholiol D (4)): 51.4 µM; interaction (type of interaction with doxorubicin) ([4]; listed as pholiol D (4)): Synergism
CC(C)=CCC[C@@H](C)[C@@H]1CC[C@]2(C)C3=C(CC[C@@]12C)[C@@]1(C)CC[C@H](O)C(C)(C)[C@@H]1CC3 [euphol]	–	–	–	–	–	–	–	–	–	–	IC50 [5]: < 10 µM
C/C(=C\CC/C=C(\C)CC/C=C(\C)CC[C@H](O)C(C)(C)O)CC/C=C(\C)CC[C@H](O)C(C)(C)O [compound 5, (3S,6E,10E,14E,18E,22S)-2,3,22,23-tetrahydroxy-2,6,10,15,19,23-hexamethyl-6,10,14,18-tetracosatetraene]	> 25	–	–	–	> 25	very strong synergistic; also recorded: synergistic	0.082	27.5	26.7	–	FAR (fluorescence activity ratio) ([2]; conc. 20 μM, rhodamine 123, Colo 320 vs Colo 205): 6.638; P-gp MDR efflux pump inhibitory activity (in words) ([2]; resistant Colo320 cells, rhodamine 123 accumulation): inhibition of P-gp MDR efflux pump activity; also recorded: capacity to inhibit the efflux-pump; also recorded: moderate P-gp inhibitory activity; interaction (type of interaction with doxorubicin) ([4]; listed as compound 5): very strong synergism; IC50 at 24 h [6, 10]: 29.1 µM; IC50 [7]: > 25 µM
CC(C)[C@@H](C)/C=C/[C@@H](C)[C@H]1CC[C@H]2C3=CC=C4C[C@@H](O)CC[C@]4(C)[C@H]3CC[C@]12C [compound 6, ergosterol]	–	–	–	–	–	–	–	–	–	0.5	interaction (type of interaction with doxorubicin) ([4]; listed as ergosterol (6)): additive effect; also recorded: nearly additive
COc1cccc2c1C(=O)c1c(O)c3c(c(O)c1C2=O)C[C@@](O)(C(=O)CO)C[C@@H]3O[C@H]1C[C@H](N)[C@H](O)[C@H](C)O1 [doxorubicin, reference compound]	2.5	–	–	–	7.4	–	–	–	–	–	IC50 at 24 h [6, 10]: > 20 µM
CC(=O)O[C@H]1[C@H](OC(=O)C[C@](C)(O)CC(=O)O)C[C@]2(C)C3=C(C(=O)C[C@H]2C1(C)C)[C@]1(C)CC[C@H]([C@H](C)CCC(=O)C(C)(C)O)[C@@]1(C)CC3 [compound 1, pholiol A]	–	3.418	39.600	42.200	–	–	–	> 100	> 100	> 100	–
CC(C)[C@@H](C)C=C[C@@H](C)[C@H]1CC[C@H]2C3=CCC4CC(=O)CC[C@]4(C)[C@H]3CC[C@]12C (stereo partly shown) [ergosta-7,22-diene-3-one]	–	–	–	–	–	–	–	–	–	–	IC50 [8]: 11.6 ± 1.7 µM; IC50 [9]: 8.4 ± 1.1 µM
COc1cc2c(cc1OC)CN(CCc1ccc(NC(=O)c3cc(OC)c(OC)cc3NC(=O)c3cnc4ccccc4c3)cc1)CC2 [tariquidar, reference compound]	–	–	–	–	–	–	–	–	–	–	FAR (fluorescence activity ratio) ([2]; conc. 0.2 μM, positive control, rhodamine 123): 5.533
CC(=O)O[C@H]1[C@H](OC(=O)C[C@](C)(O)CC(=O)O)C[C@]2(C)C3=C(CC[C@H]2C1(C)C)[C@]1(C)CC[C@H]([C@H](C)CCC(=O)C(C)(C)O)[C@@]1(C)[C@H](O)C3 [compound 3, pholiol C]	–	0.967	11.200	18.400	–	–	–	> 100	> 100	> 100	–
